The test deals with antigen-relevant immune responses to NVCP VLP. More on the design: species or system experimental animals. The note with it: in vivo.

Results on one compound are retold here after patent US9585954B2, “Mucosal immunization” (ARIZONA BOARD OF REGENTS FOR AND ON BEHALF OF ARIZONA STATE …, priority 2009, dated 2017).

As to `CCNCc1nc2c(N)nc3ccccc3c2n1CC(C)(C)O` [gardiquimod], the antigen-relevant immune responses entry is listed as “much more robust immune responses”.
